Like-named read-outs stand apart in the source and are kept apart here.
Target: T1, Estrogen Receptor-HaloTag (ER-Halo) fusion (Rhodococcus rhodochrous, UniProt P0A3G2, A155T/A167V/A172T/A224E/C128F/C176G/D78G/E160K/E257K/H272N/K175M/K195N/L47V/L88M/N227D/P291S/S58T/T264A/Y273L/Y87F)
T1 construct: expressed in transfected cells; host or cells: U2OS
Assay type: cell-based
Settings: tracks in WT U2OS cells, ratio with PA-JF549 in the numerator, 100 nM, 1 hr
Experimental: Using the methods described in Tables 4a and 4b above, labelling specificity of the compound of Examples 1-24 was measured and compared to PA-JF549. U2OS cells wild type or expressing ER-HaloTag fusion were incubated with PA-JF549 or Examples 1-24 for 1 hr. […] Labeling specificity, as measured by the fold reduction in nonspecific labeling of WT cells, was calculated by number of tracks measured in WT cells for Examples 1-24 compared to the number of tracks in WT cells for PA-JF549, expressed as the ratio with PA-JF549 in the numerator.

T1 sequence (P03372 whole entry, the tested form may be a part): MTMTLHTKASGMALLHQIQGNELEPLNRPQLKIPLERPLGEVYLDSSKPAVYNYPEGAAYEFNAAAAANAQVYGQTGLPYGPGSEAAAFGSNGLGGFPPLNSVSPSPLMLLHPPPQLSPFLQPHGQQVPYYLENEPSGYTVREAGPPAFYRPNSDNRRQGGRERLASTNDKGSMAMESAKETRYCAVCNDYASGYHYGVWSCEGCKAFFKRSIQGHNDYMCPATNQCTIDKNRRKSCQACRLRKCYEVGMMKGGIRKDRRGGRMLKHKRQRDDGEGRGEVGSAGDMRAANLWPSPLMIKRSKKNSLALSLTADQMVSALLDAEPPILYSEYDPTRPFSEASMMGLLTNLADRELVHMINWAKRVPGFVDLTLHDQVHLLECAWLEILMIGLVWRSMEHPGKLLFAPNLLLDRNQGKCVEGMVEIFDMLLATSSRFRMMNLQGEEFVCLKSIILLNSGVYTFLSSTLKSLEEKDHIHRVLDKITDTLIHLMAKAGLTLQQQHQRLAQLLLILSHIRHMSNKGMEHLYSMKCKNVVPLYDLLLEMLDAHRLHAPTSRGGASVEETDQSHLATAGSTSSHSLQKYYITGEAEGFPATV
T1 sequence (P0A3G2 other isoform, or with tags, fused parts or gaps with the stated changes): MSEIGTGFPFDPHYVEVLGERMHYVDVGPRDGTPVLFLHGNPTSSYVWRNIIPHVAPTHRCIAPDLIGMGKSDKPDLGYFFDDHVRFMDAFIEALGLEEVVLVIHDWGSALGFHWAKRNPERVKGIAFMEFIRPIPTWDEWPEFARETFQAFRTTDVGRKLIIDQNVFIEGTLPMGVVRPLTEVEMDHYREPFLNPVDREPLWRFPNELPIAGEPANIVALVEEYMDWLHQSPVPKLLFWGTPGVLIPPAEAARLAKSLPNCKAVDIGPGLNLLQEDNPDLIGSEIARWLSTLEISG

Compound	Fold reduction in nonspecific labeling (Table 4b)	Fold reduction in nonspecific labeling (Table 4a)
1,1′-(6-((2-(2-((6-chlorohexyl)oxy)ethoxy)ethyl)carbamoyl)-2-diazo-3-oxo-2,3-dihydrospiro[indene-1,9′-xanthene]-3′,6′-diyl)bis(azetidine-3-carboxamide [Example 20]	>10	–
3′,6′-di(azetidin-1-yl)-6-((2-(2-((6-chlorohexyl)oxy)ethoxy)ethyl)amino)-3H-spiro[isobenzofuran-1,9′-xanthen]-3-one [Example 21]	5-10	–
CN(C)C(=O)C1CN(c2ccc3c(c2)Oc2cc(N4CC(C(=O)N(C)C)C4)ccc2C32C(=[N+]=[N-])C(=O)c3ccc(C(=O)NCc4ccc(COc5nc(N)nc6nc[nH]c56)cc4)cc32)C1 [Example 5]	>10	>10
COC(=O)[C@H]1CCN1c1ccc2c(c1)Oc1cc(N3CC[C@@H]3C(=O)OC)ccc1C21C(=[N+]=[N-])C(=O)c2ccc(C(=O)NCCOCCOCCCCCCCl)cc21 [Example 6]	1-5	1-5
[N-]=[N+]=C1C(=O)c2ccc(C(=O)NCCOCCOCCCCCCCl)cc2C12c1ccc(N3CC(O)C3)cc1Oc1cc(N3CC(O)C3)ccc12 [Example 7, N-(2-(2-((6-chlorohexyl)oxy)ethoxy)ethyl)-2-diazo-3′,6′-bis(3-hydroxyazetidin-1-yl)-3-oxo-2,3-dihydrospiro[indene-1,9′-xanthene]-6-carboxamide]	>10	>10
CN(CCOCCOCCCCCCCl)C(=O)c1ccc2c(c1)C1(C(=[N+]=[N-])C2=O)c2ccc(N3CCC3)cc2Oc2cc(N3CCC3)ccc21 [Example 8, 3′,6′-di(azetidin-1-yl)-N-(2-(2-((6-chlorohexyl)oxy)ethoxy)ethyl)-2-diazo-N-methyl-3-oxo-2,3-dihydrospiro[indene-1,9′-xanthene]-6-carboxamide]	5-10	5-10
[N-]=[N+]=C1C(=O)c2ccc(C(=O)NCCOCCOCCCCCCCl)cc2C12c1ccc(N3CC(C(=O)N4CCOCC4)C3)cc1Oc1cc(N3CC(C(=O)N4CCOCC4)C3)ccc12 [Example 9, N-(2-(2-((6-chlorohexyl)oxy)ethoxy)ethyl)-2-diazo-3′,6′-bis(3-(morpholine-4-carbonyl)azetidin-1-yl)-3-oxo-2,3-dihydrospiro[indene-1,9′-xanthene]-6-carboxamide]	>10	>10
[N-]=[N+]=C1C(=O)c2ccc(C(=O)NCCOCCOCCCCCCCl)cc2C12c1ccc(N3CC(C(=O)N4CCCC4)C3)cc1Oc1cc(N3CC(C(=O)N4CCCC4)C3)ccc12 [Example 10, N-(2-(2-((6-chlorohexyl)oxy)ethoxy)ethyl)-2-diazo-3-oxo-3′,6′-bis(3-(pyrrolidine-1-carbonyl)azetidin-1-yl)-2,3-dihydrospiro[indene-1,9′-xanthene]-6-carboxamide]	5-10	5-10
CN1CCN(C(=O)C2CN(c3ccc4c(c3)Oc3cc(N5CC(C(=O)N6CCN(C)CC6)C5)ccc3C43C(=[N+]=[N-])C(=O)c4ccc(C(=O)NCCOCCOCCCCCCCl)cc43)C2)CC1 [Example 11, N-(2-(2-((6-chlorohexyl)oxy)ethoxy)ethyl)-2-diazo-3′,6′-bis(3-(4-methylpiperazine-1-carbonyl)azetidin-1-yl)-3-oxo-2,3-dihydrospiro[indene-1,9′-xanthene]-6-carboxamide]	1-5	1-5
CNC(=O)C1CN(c2ccc3c(c2)Oc2cc(N4CC(C(=O)NC)C4)ccc2C32C(=[N+]=[N-])C(=O)c3ccc(C(=O)NCCOCCOCCCCCCCl)cc32)C1 [Example 12, 1,1′-(6-((2-(2-((6-chlorohexyl)oxy)ethoxy)ethyl)carbamoyl)-2-diazo-3-oxo-2,3-dihydrospiro[indene-1,9′-xanthene]-3′,6′-diyl)bis(N-methylazetidine-3-carboxamide)]	>10	>10
CN(C)C1CN(c2ccc3c(c2)Oc2cc(N4CC(N(C)C)C4)ccc2C32C(=[N+]=[N-])C(=O)c3ccc(C(=O)NCCOCCOCCCCCCCl)cc32)C1 [Example 13, N-(2-(2-((6-chlorohexyl)oxy)ethoxy)ethyl)-2-diazo-3′,6′-bis(3-(dimethylamino)azetidin-1-yl)-3-oxo-2,3-dihydrospiro[indene-1,9′-xanthene]-6-carboxamide]	5-10	5-10
CN(C)C(=O)[C@@H]1CCN1c1ccc2c(c1)Oc1cc(N3CC[C@H]3C(=O)N(C)C)ccc1C21C(=[N+]=[N-])C(=O)c2ccc(C(=O)NCCOCCOCCCCCCCl)cc21 [Example 14, (2S,2'S)-1,1′-(6-((2-(2-((6-chlorohexyl)oxy)ethoxy)ethyl)carbamoyl)-2-diazo-3-oxo-2,3-dihydrospiro[indene-1,9′-xanthene]-3′,6′-diyl)bis(N,N-dimethylazetidine-2-carboxamide)]	>10	>10
[N-]=[N+]=C1C(=O)c2ccc(C(=O)NCCOCCOCCCCCCCl)cc2C12c1ccc(N3CC[C@@H]3CO)cc1Oc1cc(N3CC[C@@H]3CO)ccc12 [Example 15, N-(2-(2-((6-chlorohexyl)oxy)ethoxy)ethyl)-2-diazo-3′,6′-bis((R)-2-(hydroxymethyl)azetidin-1-yl)-3-oxo-2,3-dihydrospiro[indene-1,9′-xanthene]-6-carboxamide]	5-10	5-10
CN(C)C(=O)[C@H]1CCN(c2ccc3c(c2)Oc2cc(N4CC[C@H](C(=O)N(C)C)C4)ccc2C32C(=[N+]=[N-])C(=O)c3ccc(C(=O)NCCOCCOCCCCCCCl)cc32)C1 [Example 16, (3S,3′S)-1,1′-(6-((2-(2-((6-chlorohexyl)oxy)ethoxy)ethyl)carbamoyl)-2-diazo-3-oxo-2,3-dihydrospiro[indene-1,9′-xanthene]-3′,6′-diyl)bis(N,N-dimethylpyrrolidine-3-carboxamide)]	5-10	5-10
[N-]=[N+]=C1C(=O)c2ccc(C(=O)NCCOCCOCCCCCCCl)cc2C12c1ccc(N3C4COCC3C4)cc1Oc1cc(N3C4COCC3C4)ccc12 (stereo not shown) [Example 17, 3′,6′-di(3-oxa-6-azabicyclo[3.1.1]heptan-6-yl)-N-(2-(2-((6-chlorohexyl)oxy)ethoxy)ethyl)-2-diazo-3-oxo-2,3-dihydrospiro[indene-1,9′-xanthene]-6-carboxamide]	1-5	1-5
CN1CC2CC(C1)N2c1ccc2c(c1)Oc1cc(N3C4CC3CN(C)C4)ccc1C21C(=[N+]=[N-])C(=O)c2ccc(C(=O)NCCOCCOCCCCCCCl)cc21 (stereo not shown) [Example 18, N-(2-(2-((6-chlorohexyl)oxy)ethoxy)ethyl)-2-diazo-3′,6′-bis(3-methyl-3,6-diazabicyclo[3.1.1]heptan-6-yl)-3-oxo-2,3-dihydrospiro[indene-1,9′-xanthene]-6-carboxamide]	>10	>10
CN(C)C(=O)C1CN(c2ccc3c(c2)[Si](C)(C)c2cc(N4CC(C(=O)N(C)C)C4)ccc2C32C(=[N+]=[N-])C(=O)c3ccc(C(=O)NCCOCCOCCCCCCCl)cc32)C1 [Example 19]	>10	–
